{"source": "patent US5843941A", "about": "“Ras farnesyl transferase inhibitors” (Genentech, Inc., priority 1994, dated 1998)", "key": {"[1]": {"system": "Ras proteins in Met18b-2 cells", "experiment": "Incorporation of [3H]mevalonate into immunoprecipitated Ras proteins in Met18b-2 cells", "format": "cell-based, Chinese hamster", "conditions": "FIG. 5", "procedure": "In each experiment, aliquots of the Triton X-100 fraction (300 μg protein, prepared as described above) were incubated with 1 μg anti-Ras monoclonal antibody (Oncogene Sciences, Inc.) overnight at 4° C. on a rotating platform. Immune complexes were precipitated by addition of 25 μl Protein A-agarose suspension that had been pre-coated with goat anti-rat IgG (Oncogene Sciences, Inc.) according to the manufacturer's instructions. After a 30 min incubation at 4° C., the agarose beads were pelleted by centrifugation and washed 5 times with 1 ml each of wash solution (50 mM Tris-HCl, 50 mM NaCl, 0.5% (w/v) deoxycholate, 0.5% (v/v) Nonidet P-40, and 0.1% (w/v) SDS at pH 7.5). 75 μl of 1X SDS sample buffer was added and each sample heated for 5 min at 95° C. before electrophoresis as above."}, "[2]": {"system": "H-ras(Val12)-transformed rat-1 fibroblasts (rat 2.2 cells)", "experiment": "Changes in morphology of H-ras-transformed cells", "format": "cell-based", "conditions": "5 days; FIG. 6A/6B", "procedure": "Compound 27A (denoted as BG269A in the figure) and compound 27B (denoted as BG269B in the figure) were added at 250 μM to test whether these compounds would induce reversion to a more normal phenotype as had been previously shown with microinjection of anti-Ras antibodies (see Feramisco, J. R. et al Nature 314, 639 (1985)). The H-ras transformed cells, denoted as rat 2.2 cells, were generated by transfection of rat-1 fibroblasts as described (see Seeburg, P. H., Colby, W. W., Capon, D. J., Goeddel, D. V., and Levinson, A. D. Nature 312,71 (1984)). Cells that overgrew the monolayer were extracted and plated onto agar to obtain a cell line displaying a fully transformed phenotype. Untransformed rat-1 fibroblasts and src-transformed rat-1 fibroblasts were also treated. The src-transformed cells were generated by co-transfection of rat-1 fibroblasts with pSV3.Neo.src, a vector containing the gene for src as well as the gene that confers G418 resistance, both under control of SV40 early promoters. G418-resistant cell clones that diplayed a transformed phenotype were used to generate the cell line. On day 0, cells were plated in monolayer culture at 3×10^3 cells per well (24-well plates) in 1 ml DMEM supplemented with 10% FCS, 100 U/ml penicillin, 10 μg/ml streptomycin, 2% DMSO, and 0.5 mM DTT with and without 200 μM inhibitor. On day 3, the cells were refed with the same medium. On day 5, the cells were photographed under contrast at a magnification of 100X. […] This change in morphology is remarkably similar to that seen following injection of anti-ras antibodies into ras-transformed cells (see Feramisco, J. R. et al Nature 314, 639 (1985)). Rat-1 fibroblasts transformed with the src oncogene also grew in a multilayered pattern (FIG. 6C), but this was not affected by compound 27A or compound 27B (FIG. 6D)."}, "[3]": {"system": "src-transformed rat-1 fibroblasts", "experiment": "Changes in morphology of src-transformed cells", "format": "cell-based", "conditions": "FIG. 6C/6D", "procedure": "(§1) Compound 27A (denoted as BG269A in the figure) and compound 27B (denoted as BG269B in the figure) were added at 250 μM to test whether these compounds would induce reversion to a more normal phenotype as had been previously shown with microinjection of anti-Ras antibodies (see Feramisco, J. R. et al Nature 314, 639 (1985)). The H-ras transformed cells, denoted as rat 2.2 cells, were generated by transfection of rat-1 fibroblasts as described (see Seeburg, P. H., Colby, W. W., Capon, D. J., Goeddel, D. V., and Levinson, A. D. Nature 312,71 (1984)). Cells that overgrew the monolayer were extracted and plated onto agar to obtain a cell line displaying a fully transformed phenotype. Untransformed rat-1 fibroblasts and src-transformed rat-1 fibroblasts were also treated. The src-transformed cells were generated by co-transfection of rat-1 fibroblasts with pSV3.Neo.src, a vector containing the gene for src as well as the gene that confers G418 resistance, both under control of SV40 early promoters. G418-resistant cell clones that diplayed a transformed phenotype were used to generate the cell line. On day 0, cells were plated in monolayer culture at 3×10^3 cells per well (24-well plates) in 1 ml DMEM supplemented with 10% FCS, 100 U/ml penicillin, 10 μg/ml streptomycin, 2% DMSO, and 0.5 mM DTT with and without 200 μM inhibitor. On day 3, the cells were refed with the same medium. […]"}, "[4]": {"system": "untransformed rat-1 fibroblasts", "experiment": "Changes in morphology of untransformed cells", "format": "cell-based", "conditions": "FIG. 6E and F", "procedure": "as §1"}}, "data": [{"smiles": "CSCC[C@H](NC(=O)CN1C(=O)C(N(C)C(=O)[C@@H](N)CS)N=C(c2ccccc2)c2ccccc21)C(=O)O", "note": "(single isomer, unassigned) [27A]", "values": [{"measurement": "effect of control molecules on [3H]mevalonate incorporation", "setting": "[1]", "result": "had no effect"}, {"measurement": "effect on transformed phenotype (morphology)", "setting": "[2]", "result": "had no effect"}, {"measurement": "effect on morphology of src-transformed cells", "setting": "[3]", "result": "not affected"}, {"measurement": "effect on morphology of untransformed cells", "setting": "[4]", "result": "no apparent effect on the morphology of untransformed rat-1 fibroblasts"}]}]}
